Source: publication doi:10.1101/2021.06.10.447714v2 (bioRxiv, 2021)

How the values were obtained:
Format in all cases: biochemical
[1] = biological target: T1, insulin degrading enzyme (IDE) (Homo sapiens, UniProt P14735); test: SDS-PAGE assay for ghrelin proteolysis by IDE; conditions: EDTA added to the enzyme pre-mixture, 50 mM Tris pH 7.3, 37 °C
[2] = biological target: T1, insulin degrading enzyme (IDE); test: Identification of IDE-mediated cleavage sites by HPLC and MALDI-TOF; conditions: HPLC (C-18) and MALDI-TOF; 50 mM Tris pH 7.3, 37 °C; three runs
[3] = biological target: T1, insulin degrading enzyme (IDE); test: Circular dichroism analysis of insulin degradation by IDE; conditions: CD at 222 nm and LC, substrate:enzyme ratio 100:1, 37 °C

In the case of `O=C(O)CN(CCN(CC(=O)O)CC(=O)O)CC(=O)O` [EDTA, ethylenediaminetetraacetate], the “inhibition of IDE-mediated ghrelin proteolysis” value [1] was “inhibited”.
In the case of `CCCCCCCC(=O)OC[C@H](NC(=O)[C@H](CO)NC(=O)CN)C(=O)N[C@@H](Cc1ccccc1)C(=O)N[C@@H](CC(C)C)C(=O)N[C@@H](CO)C(=O)N1CCC[C@H]1C(=O)N[C@@H](CCC(=O)O)C(=O)N[C@@H](Cc1cnc[nH]1)C(=O)N[C@@H](CCC(N)=O)C(=O)N[C@@H](CCCNC(=N)N)C(=O)N[C@H](C(=O)N[C@@H](CCC(N)=O)C(=O)N[C@@H](CCC(N)=O)C(=O)N[C@@H](CCCNC(=N)N)C(=O)N[C@@H](CCCCN)C(=O)N[C@@H](CCC(=O)O)C(=O)N[C@@H](CO)C(=O)N[C@@H](CCCCN)C(=O)N[C@@H](CCCCN)C(=O)N1CCC[C@H]1C(=O)N1CCC[C@H]1C(=O)N[C@@H](C)C(=O)N[C@@H](CCCCN)C(=O)N[C@@H](CC(C)C)C(=O)N[C@@H](CCC(N)=O)C(=O)N1CCC[C@H]1C(=O)N[C@@H](CCCNC(=N)N)C(=O)O)C(C)C` [ghrelin], the “IDE-mediated cleavage sites (initial)” value [2] was “Q13/ Q14, Q14/R15 and possibly Q10/R11”.
“insulin: established IDE substrate, used in CD experiments” was tested, and the “insulin degradation by IDE in 30% TFE” value [3] was “does not degrade”.
